How the values were obtained:
IL-1β = details: Carta et al. 2006; cited from earlier work
[1] = tested on: proinflammatory cytokines; details: Leoni et al. 2002, 2005; cited from earlier work
Class I HDACs and HDAC6 = details: Bradner et al. 2010; cited from earlier work
HDAC7 = molecular target: T1, HDAC7 (Homo sapiens, UniProt Q8WUI4); assay: Kinetic HDAC enzyme inhibition assay, HDAC7; format: biochemical; details: recombinant HDAC
T1 construct: purchased BPS Biosciencies (San Diego, Calif.)
T1 sequence (Q8WUI4 1-952): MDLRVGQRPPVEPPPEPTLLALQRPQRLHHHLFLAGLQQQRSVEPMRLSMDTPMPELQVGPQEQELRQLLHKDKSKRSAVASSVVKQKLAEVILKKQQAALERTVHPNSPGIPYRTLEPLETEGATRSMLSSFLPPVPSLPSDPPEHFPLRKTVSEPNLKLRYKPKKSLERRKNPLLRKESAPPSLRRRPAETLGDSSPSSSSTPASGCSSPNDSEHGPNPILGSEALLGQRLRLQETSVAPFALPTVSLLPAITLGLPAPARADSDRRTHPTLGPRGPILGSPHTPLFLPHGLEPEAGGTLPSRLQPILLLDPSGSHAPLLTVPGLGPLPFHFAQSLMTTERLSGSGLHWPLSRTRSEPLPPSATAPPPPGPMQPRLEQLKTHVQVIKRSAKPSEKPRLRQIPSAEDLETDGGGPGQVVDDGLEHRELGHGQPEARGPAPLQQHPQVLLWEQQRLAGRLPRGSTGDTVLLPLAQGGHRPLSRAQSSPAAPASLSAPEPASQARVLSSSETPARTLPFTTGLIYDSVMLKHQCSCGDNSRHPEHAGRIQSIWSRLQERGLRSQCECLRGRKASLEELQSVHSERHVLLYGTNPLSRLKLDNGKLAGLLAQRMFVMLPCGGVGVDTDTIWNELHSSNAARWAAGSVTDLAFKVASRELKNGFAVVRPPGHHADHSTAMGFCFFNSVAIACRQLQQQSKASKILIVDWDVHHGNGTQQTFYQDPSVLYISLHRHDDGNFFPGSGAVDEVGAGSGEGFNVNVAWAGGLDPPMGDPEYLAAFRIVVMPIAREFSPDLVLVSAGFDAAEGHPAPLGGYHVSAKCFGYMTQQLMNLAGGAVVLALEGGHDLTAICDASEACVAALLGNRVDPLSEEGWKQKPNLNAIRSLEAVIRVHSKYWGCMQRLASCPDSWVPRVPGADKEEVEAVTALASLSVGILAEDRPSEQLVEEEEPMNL
Description: (§1) HDAC inhibitory activity of the compounds described in Table 1 is measured using a kinetic HDAC assay. Recombinant HDACs are obtained from BPS Biosciencies (San Diego, Calif.). […] Fluorescence measurements are obtained approximately once per minute using a multilabel plate reader. Data were analyzed using GraphPad Prism.

HDAC1 = molecular target: T2, HDAC1 (Homo sapiens, UniProt Q13547); assay: Kinetic HDAC enzyme inhibition assay, HDAC1; format: biochemical; details: recombinant HDAC
T2 construct: purchased BPS Biosciencies (San Diego, Calif.)
Description: as §1

human PBMCs = assay: LPS induced cytokine release from PBMCs; format: cell-based; details: 1 μM compound, 0.5 ng/ml LPS overnight
Description: Whole blood from three anonymous donors is collected in vacutainer tubes with sodium heparin as an anti-coagulant (Research Blood Components, Brighton, Mass.). A total volume of 30 ml of blood is diluted and layered over Ficoll-Paque Plus (GE Life Sciences) and centrifuged at 400×g for 30 minutes. The peripheral blood mononuclear cell (PBMC) fraction is removed from the interface of plasma and Ficoll and washed once with PBS.
Cells are seeded in 24 well plates at a density of 400,000 cells per well.
After the overnight stimulation the plates are centrifuged at 200×g for 5 minutes. The supernatant is removed and a small aliquot is reserved for determination of TNFα levels by ELISA (R&D Systems, catalog number STA00C). The remainder of the supernatant is frozen at −80° C. and sent to Millipore Bioscience Division (St. Charles, Mo.) for multiplex cytokine analysis.

HDAC2 = molecular target: T3, HDAC2 (Homo sapiens, UniProt Q92769); assay: Kinetic HDAC enzyme inhibition assay, HDAC2; format: biochemical; details: recombinant HDAC
T3 construct: purchased BPS Biosciencies (San Diego, Calif.)
Description: as §1

HDAC9 = molecular target: T4, HDAC9 (Homo sapiens, UniProt Q9UKV0); assay: Kinetic HDAC enzyme inhibition assay, HDAC9; format: biochemical; details: recombinant HDAC
T4 construct: purchased BPS Biosciencies (San Diego, Calif.)
Description: as §1

HDAC5 = molecular target: T5, HDAC5 (Homo sapiens, UniProt Q9UQL6); assay: Kinetic HDAC enzyme inhibition assay, HDAC5; format: biochemical; details: recombinant HDAC
T5 construct: purchased BPS Biosciencies (San Diego, Calif.)
Description: as §1

[2] = tested on: collagen induced arthritis; assay: Collagen induced arthritis in mice; format: in vivo, male DBA/1OlaHsd mice; details: 30 mg/kg twice daily injection from Day 18
Description: To test these two HDAC6 inhibitors in an animal model of a chronic inflammatory disease a mouse collagen induced arthritis in a semi-therapeutic mode is used. In this study male DBA/1OlaHsd mice, 6 weeks old, are anesthetized with Isoflurane and given 150 μL Type II collagen in Freund's complete adjuvant on Day 0 and Day 21. Treatment with compound is initiated on Day 18. The mice in the treatment groups are injected twice daily with 30 mg/kg of compound in 10% DMSO/10% Solutol HS15/80% 0.9% saline. […] Inflammation in the joints is measured daily and a disease score is calculated based on paw thickness.

HDAC4 = molecular target: T6, HDAC4 (Homo sapiens, UniProt P56524); assay: Kinetic HDAC enzyme inhibition assay, HDAC4; format: biochemical; details: recombinant HDAC
T6 construct: purchased BPS Biosciencies (San Diego, Calif.)
Description: as §1

[3] = tested on: RAW264.7 mouse macrophages; assay: TNFα protein and mRNA in LPS stimulated RAW264.7 macrophages; format: cell-based; details: 10 ng/ml LPS, two hours; for TNFα protein level in supernatant: ELISA; for TNFα mRNA level: RT-PCR relative to GAPDH
Description: The cells are stimulated with 10 ng/ml LPS and incubated for two hours. The cell supernatants are collected and assayed for the level of TNFα by ELISA. The cells are harvested and mRNA purified using an RNEasy kit from Qiagen. The level of TNFα mRNA is determined by RT-PCR using a StepOne Plus real time PCR machine. The change in the relative level of TNFα mRNA as compared to the level of GAPDH mRNA is plotted, along with the concentration of TNFα protein in the supernatant (see FIG. 4).

T6 sequence (P56524 whole entry): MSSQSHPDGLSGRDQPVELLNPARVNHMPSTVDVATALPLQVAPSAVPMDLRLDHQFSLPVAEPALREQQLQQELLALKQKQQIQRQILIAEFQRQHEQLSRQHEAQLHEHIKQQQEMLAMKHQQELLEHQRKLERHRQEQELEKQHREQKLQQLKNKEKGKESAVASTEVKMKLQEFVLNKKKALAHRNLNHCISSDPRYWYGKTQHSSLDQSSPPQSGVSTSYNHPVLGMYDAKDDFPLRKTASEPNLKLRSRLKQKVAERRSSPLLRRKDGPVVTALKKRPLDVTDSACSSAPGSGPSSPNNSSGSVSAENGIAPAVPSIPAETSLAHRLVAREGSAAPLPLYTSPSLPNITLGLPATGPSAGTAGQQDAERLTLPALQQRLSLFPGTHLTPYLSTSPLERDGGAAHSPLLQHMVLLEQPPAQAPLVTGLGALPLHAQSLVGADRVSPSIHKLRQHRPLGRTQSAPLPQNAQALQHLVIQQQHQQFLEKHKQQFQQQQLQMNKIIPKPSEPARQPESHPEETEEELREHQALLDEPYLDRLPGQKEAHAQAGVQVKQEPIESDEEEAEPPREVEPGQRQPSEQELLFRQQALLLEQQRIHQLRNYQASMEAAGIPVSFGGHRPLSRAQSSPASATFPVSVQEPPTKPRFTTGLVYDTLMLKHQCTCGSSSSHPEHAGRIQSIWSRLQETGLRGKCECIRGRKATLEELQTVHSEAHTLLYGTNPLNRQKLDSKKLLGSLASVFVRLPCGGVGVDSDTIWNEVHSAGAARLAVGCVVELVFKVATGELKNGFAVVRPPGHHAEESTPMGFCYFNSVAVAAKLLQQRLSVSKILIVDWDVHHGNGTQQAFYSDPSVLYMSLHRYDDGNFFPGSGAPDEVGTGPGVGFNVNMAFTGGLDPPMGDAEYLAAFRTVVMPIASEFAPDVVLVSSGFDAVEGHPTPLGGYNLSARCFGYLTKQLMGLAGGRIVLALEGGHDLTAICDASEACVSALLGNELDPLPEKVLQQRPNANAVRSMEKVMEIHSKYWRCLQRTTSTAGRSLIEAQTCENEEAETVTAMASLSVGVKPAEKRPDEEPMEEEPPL
T3 sequence (Q92769 whole entry): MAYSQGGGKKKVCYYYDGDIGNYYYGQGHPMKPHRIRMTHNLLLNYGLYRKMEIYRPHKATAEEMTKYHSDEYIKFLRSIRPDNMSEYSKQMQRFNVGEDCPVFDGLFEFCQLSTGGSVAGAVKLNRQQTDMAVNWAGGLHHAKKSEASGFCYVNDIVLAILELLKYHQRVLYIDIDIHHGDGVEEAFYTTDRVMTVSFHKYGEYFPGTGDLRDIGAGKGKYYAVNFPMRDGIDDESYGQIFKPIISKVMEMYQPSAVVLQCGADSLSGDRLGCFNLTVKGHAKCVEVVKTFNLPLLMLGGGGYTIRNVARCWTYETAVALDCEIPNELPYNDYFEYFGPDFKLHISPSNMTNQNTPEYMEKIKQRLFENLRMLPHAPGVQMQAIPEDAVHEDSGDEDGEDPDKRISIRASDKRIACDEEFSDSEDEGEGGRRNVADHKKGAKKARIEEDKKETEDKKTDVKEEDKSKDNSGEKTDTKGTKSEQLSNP
T2 sequence (Q13547 whole entry): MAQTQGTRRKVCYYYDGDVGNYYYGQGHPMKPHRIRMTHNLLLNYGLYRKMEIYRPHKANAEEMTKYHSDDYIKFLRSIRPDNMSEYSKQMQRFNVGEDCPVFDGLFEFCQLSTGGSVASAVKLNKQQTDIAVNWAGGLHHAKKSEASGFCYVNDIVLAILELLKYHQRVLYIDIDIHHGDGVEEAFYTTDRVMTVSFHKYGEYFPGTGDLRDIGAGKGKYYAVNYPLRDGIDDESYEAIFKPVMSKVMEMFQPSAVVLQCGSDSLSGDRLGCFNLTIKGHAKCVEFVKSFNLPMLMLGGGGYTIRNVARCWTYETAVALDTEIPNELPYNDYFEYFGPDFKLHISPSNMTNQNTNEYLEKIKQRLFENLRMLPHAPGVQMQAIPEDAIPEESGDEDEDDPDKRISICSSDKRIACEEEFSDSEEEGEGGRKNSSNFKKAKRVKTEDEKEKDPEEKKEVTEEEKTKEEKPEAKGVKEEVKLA
T5 sequence (Q9UQL6 whole entry): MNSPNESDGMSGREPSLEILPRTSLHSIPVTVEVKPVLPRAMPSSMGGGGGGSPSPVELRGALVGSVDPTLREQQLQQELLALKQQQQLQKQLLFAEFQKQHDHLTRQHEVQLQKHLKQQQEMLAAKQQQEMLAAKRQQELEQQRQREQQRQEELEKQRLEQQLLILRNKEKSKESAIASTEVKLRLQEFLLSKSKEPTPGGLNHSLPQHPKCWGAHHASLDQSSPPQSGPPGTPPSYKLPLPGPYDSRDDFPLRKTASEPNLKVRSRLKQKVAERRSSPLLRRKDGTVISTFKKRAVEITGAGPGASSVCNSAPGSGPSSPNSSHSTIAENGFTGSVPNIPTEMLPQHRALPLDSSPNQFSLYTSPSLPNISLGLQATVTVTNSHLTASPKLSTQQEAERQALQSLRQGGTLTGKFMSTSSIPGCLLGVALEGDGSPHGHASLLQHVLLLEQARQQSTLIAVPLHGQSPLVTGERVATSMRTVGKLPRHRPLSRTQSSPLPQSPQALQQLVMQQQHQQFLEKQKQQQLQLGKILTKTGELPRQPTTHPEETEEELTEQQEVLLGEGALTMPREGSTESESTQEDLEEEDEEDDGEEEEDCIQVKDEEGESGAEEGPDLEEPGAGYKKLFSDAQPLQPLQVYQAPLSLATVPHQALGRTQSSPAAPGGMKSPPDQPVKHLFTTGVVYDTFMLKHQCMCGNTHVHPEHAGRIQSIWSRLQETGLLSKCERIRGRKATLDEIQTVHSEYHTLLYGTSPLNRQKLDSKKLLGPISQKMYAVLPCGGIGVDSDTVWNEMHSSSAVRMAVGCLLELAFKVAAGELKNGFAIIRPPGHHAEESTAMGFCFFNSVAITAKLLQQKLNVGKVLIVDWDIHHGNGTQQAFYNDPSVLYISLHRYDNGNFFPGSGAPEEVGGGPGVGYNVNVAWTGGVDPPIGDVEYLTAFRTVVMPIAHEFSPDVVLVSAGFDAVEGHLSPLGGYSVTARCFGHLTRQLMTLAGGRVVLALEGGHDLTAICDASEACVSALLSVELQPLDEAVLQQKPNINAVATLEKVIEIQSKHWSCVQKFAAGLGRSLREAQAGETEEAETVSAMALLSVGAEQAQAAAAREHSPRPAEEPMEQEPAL
T4 sequence (Q9UKV0 whole entry): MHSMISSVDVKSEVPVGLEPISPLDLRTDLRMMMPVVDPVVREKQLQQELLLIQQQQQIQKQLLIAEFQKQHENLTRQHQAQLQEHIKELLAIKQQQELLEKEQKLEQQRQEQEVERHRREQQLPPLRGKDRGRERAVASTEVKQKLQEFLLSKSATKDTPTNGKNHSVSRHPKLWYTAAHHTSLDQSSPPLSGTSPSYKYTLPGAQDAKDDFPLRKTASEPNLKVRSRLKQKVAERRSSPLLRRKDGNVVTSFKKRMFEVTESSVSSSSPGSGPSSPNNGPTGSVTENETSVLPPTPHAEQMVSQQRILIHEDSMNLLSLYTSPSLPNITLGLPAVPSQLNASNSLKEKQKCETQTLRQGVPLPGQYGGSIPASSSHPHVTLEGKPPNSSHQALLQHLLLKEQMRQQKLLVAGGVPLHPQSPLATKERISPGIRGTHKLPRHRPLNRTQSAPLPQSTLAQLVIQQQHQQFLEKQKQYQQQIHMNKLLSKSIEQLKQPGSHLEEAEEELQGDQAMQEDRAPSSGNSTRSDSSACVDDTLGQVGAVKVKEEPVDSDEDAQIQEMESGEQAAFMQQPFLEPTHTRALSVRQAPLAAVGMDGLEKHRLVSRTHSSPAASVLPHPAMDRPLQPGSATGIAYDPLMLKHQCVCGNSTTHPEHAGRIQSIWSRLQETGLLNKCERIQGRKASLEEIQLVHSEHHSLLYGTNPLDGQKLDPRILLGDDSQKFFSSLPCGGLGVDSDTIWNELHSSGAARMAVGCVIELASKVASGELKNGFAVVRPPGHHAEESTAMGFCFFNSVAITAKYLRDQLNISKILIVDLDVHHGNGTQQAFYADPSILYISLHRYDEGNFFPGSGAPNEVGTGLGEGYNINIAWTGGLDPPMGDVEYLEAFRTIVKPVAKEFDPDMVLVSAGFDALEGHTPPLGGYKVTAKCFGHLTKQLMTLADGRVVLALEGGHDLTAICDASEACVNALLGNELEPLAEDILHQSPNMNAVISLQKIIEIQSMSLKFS

IC50 (HDAC7) [nM]	IC50 (HDAC1) [nM]	IC50 (HDAC2) [nM]	IC50 (HDAC9) [nM]	IC50 (HDAC5) [nM]	IC50 (HDAC4) [nM]	SMILES	Level of synthesis or intracellular localization of the precursors of IL-1β (IL-1β)	Secretion of mature IL-1β (IL-1β)	Number of LPS induced cytokines decreased (of eight) (human PBMCs)	other results
						CCN(CC)Cc1ccc2cc(COC(=O)Nc3ccc(C(=O)NO)cc3)ccc2c1 [ITF2357]	do not affect	inhibit secretion		Levels of proinflammatory cytokines [1]: non-specifically reduce; HDAC class selectivity (Class I HDACs and HDAC6): selective for Class I HDACs and HDAC6 but not Class IIa
> 10000	178	450	> 10000	8200	> 10000	COC(c1ccc(F)cc1)(c1ccc(F)cc1)c1ccc(C(=O)NCCCCCCC(=O)NO)cc1 [ACY-257]			five of eight	Effect on production of GM-CSF (human PBMCs): significantly decreasing; Effect on production of IL-1β (human PBMCs): significantly decreasing; Effect on production of IL-6 (human PBMCs): significantly decreasing; Effect on production of IL-7 (human PBMCs): no effect; Effect on production of IL-8 (human PBMCs): no effect; Effect on production of IL-10 (human PBMCs): significantly decreasing; Effect on production of MCP-1 (human PBMCs): no effect; Effect on production of TNF-α (human PBMCs): significantly decreasing; Decrease of severity of disease (average) [2]: 50%
						O=C(CCCCCCNC(=O)c1cnc(N(c2ccccc2)c2ccccc2)nc1)NO [ACY-63]				Decrease of severity of disease (average) [2]: 67%
						O=C(CCCCCCC(=O)Nc1ccc([C@H]2O[C@@H](CSc3nc(-c4ccccc4)c(-c4ccccc4)o3)C[C@@H](c3ccc(CO)cc3)O2)cc1)NO [tubacin]	do not affect	inhibit secretion		
> 10000	45	96	> 10000	5900	> 10000	O=C(CCCCCCNC(=O)c1ccc(C(O)(c2ccccn2)c2ccccn2)cc1)NO [ACY-251]				
						CC(/C=C/C(=O)NO)=C\[C@@H](C)C(=O)c1ccc(N(C)C)cc1 [Trichostatin A]	do not affect	inhibit secretion		
						C[C@@H]1NC(=O)[C@H]2CCCN2C(=O)[C@H](CCCCCC(=O)[C@@H]2CO2)NC(=O)[C@@H](C)NC1=O [HC-toxin]	do not affect	inhibit secretion		
						O=C(CCCCCCC(=O)Nc1ccccc1)NO [SAHA, Suberoylanilide hydroxamic acid]	do not affect	inhibit secretion	six out of eight	Levels of proinflammatory cytokines [1]: non-specifically reduce
> 10000	57	131	> 10000	> 10000	> 10000	Cc1ccccc1N(c1ccccc1)c1ncc(C(=O)NCCCCCCC(=O)NO)cn1 [ACY-216]			three of eight	

SMILES	IC50 (HDAC7) [nM]	IC50 (HDAC1) [nM]	IC50 (HDAC2) [nM]	IC50 (HDAC9) [nM]	IC50 (HDAC5) [nM]	IC50 (HDAC4) [nM]	Level of synthesis or intracellular localization of the precursors of IL-1β (IL-1β)	Secretion of mature IL-1β (IL-1β)	Number of LPS induced cytokines decreased (of eight) (human PBMCs)	other results
O=C(NO)c1cnc(NC2(c3ccccc3)CC2)nc1 [ACY-738]	1600			914	882	1600				TNFα protein level in supernatant [3]: inhibition; TNFα protein level in supernatant ([3]; listed as ACY-739): decreases; TNFα mRNA level [3]: inhibition; TNFα mRNA level ([3]; listed as ACY-739): decreases

From patent publication US20130225543A1, “SPECIFIC REGULATION OF CYTOKINE LEVELS BY HDAC6 INHIBITORS” (Acetylon Pharmaceuticals, priority 2010, published 2013)
